One test addresses PI3Kα (Homo sapiens (Human), UniProt P42336). Nature of the test: In vitro PI3 kinase enzyme assay (PI3K ATPLoss). In kind it is biochemical. To be noted: average if run more than once. How it is done:
Recombinant Expression of PI3K Enzymes
Full length p110 subunits of PI3K α, β and δ, N-terminally labeled with polyHis tag, can be co-expressed with p85 with Baculo virus expression vectors in sf9 insect cells. P110/p85 heterodimers can be purified by sequential Ni-NTA, Q-HP, Superdex-100 chromatography. Purified α, β and δ isozymes can be stored at −20° C. in 20 mM Tris, pH 8, 0.2M NaCl, 50% glycerol, 5 mM DTT, 2 mM Na cholate. […] The γ isozyme can be purified by sequential Ni-NTA, Superdex-200, Q-HP chromatography. The γ isozyme can be stored frozen at −80° C. in NaH2PO4, pH 8, 0.2M NaCl, 1% ethylene glycol, 2 mM β-mercaptoethanol.
In Vitro PI3 Kinase Enzyme Assays (PI3K ATPLoss)
PI3K enzyme assays (alpha, beta, delta and gamma) can be performed in 25 μL with the above final concentrations of components in white polyproplyene plates. Phosphatidyl inositol phosphoacceptor, PtdIns(4,5)P2 (e.g., P4508) can be obtained from Echelon Biosciences, Salt Lake City, Utah. […] Test compounds can be dissolved in DMSO and diluted with three-fold serial dilutions. The compound in DMSO (1 μL) may be added per test well, and the inhibition relative to reactions containing no compound, with and without enzyme can be determined. After assay incubation at RT, the reaction can be stopped and residual ATP can be determined by addition of an equal volume of a commercial ATP bioluminescence kit (Perkin Elmer EasyLite, Perkin Elmer, Waltham, Mass.) according to the manufacturer's instructions, and detected using an Analyst GT luminometer.

In test [1] the test system is phosphorylation of Akt at Serine 473 in U87 MG cells. Nature of the test: pAkt AlphaScreen (U87 cell). In kind it is cell-based. The settings on record: Homo sapiens, U-87 MG, 2 h; pAkt Ser473, U87 MG cells, compound two hours; average if run more than once. How it is done:
pAkt AlphaScreen (U87 Cell)
The pAkt AlphaScreen® assay (PerkinElmer, Waltham, Mass.) determines whether there is phosphorylation of Akt at Serine 473 by recruitment of a phosphospecific antibody. This assay was performed using U87 MG cells. The U87 growth media consists of MEM (Gibco, Carlsbad, Calif.) supplemented with 10% FBS (Gibco), 1× Non-Essential Amino Acids (Gibco) and 1× Penicillin/Streptomycin/Glutamine (Gibco). The cells were maintained weekly using 0.05% Trypsin (Gibco) and replated in 150 mm TC—Treated Culture Dishes (Corning, Corning, N.Y.).
The first day of the assay, the adherent cells were trypsinized, media was added to the loose cells and cells were mixed to a homogenous mixture. 0.5 ml of the homogenous mixture was counted on the Beckman Coulter® Vi-CELL™ XR (Fullerton, Calif.). 50 frames of cells were counted and the number of viable cells was determined. The cells were then diluted to 0.25 million cells per ml, and centrifuged at 200 rcf for 5 minutes. The media was removed and the cells were reconstituted in fresh media for plating. The cells were plated at 20 μl per well on the PerkinElmer® Flexprop PLUS in Low Volume 384 Well White Tissue Culture Plates (Corning) with a final cell density of 5K cells per well. The plates were incubated overnight at 37° Celsius, 5% CO2.
On the second day, the compound plates were prepared, the cells were treated with compound and the pAkt reaction mix was added to the cell lysate. 384 well compound plates were prepared containing 1 μl of compound per well starting at 5 mM and diluted 1:2 across the row, resulting in a 22 well serial dilution. 39 μl of growth media was added to the compound plate in rows 1-22 using the PerkinElmer® Flexprop PLUS resulting in a DMSO concentration of 2.5%. The cell plates and diluted compound plates were put onto the VELOCITY11™ VPREP™ 384 ST where the compound plate was mixed and 5 μl of serially diluted compound or controls was added to the cell plate. The final concentration of the compounds was 25 μM serially diluted to 11.9 pM in 0.5% DMSO. The cell plates were then incubated with compound for two hours at 37° Celsius, 5% CO2. After two hours, the media in the cell plates was aspirated using the BioTek® ELx405HT plate washer (Winooski, Vt.) removing the majority of media and compound without disturbing the adherent U87 cells. The following assay reagents are components of the SureFire® Akt (Ser 473) Phosphorylation 50K Point Kit (TGR BioSciences, Adelaide, Australia) and an IgG Detection Kit (PerkinElmer, Waltham, Mass.). 5 μl of 1× Lysis Buffer was added to each well using the PerkinElmer® Flexprop PLUS. The plates were then incubated at room temperature on a shaker for ten minutes. The AlphaScreen® reaction was prepared under low light conditions (subdued or green light) including p-Akt (Ser 473) Reaction Buffer, Dilution Buffer, Activation Buffer, Acceptor Beads and Donor Beads at a ratio of 40:20:10:1:1 respectively. The AlphaScreen® reaction was added to the cell lysate at 6 μl per well using the PerkinElmer® Flexprop PLUS. The plates were placed in a humid environment to reduce edge effects and incubated overnight at room temperature with restricted air flow in the dark.
On the final day of the experiment, the plates were read on the PerkinElmer® EnVision™ 2103 Multilable Reader using the standard AlphaScreen® readout. The POC is calculated and the data is analyzed to report the IC50 IP for pAkt at Serine 473.
Activity data for the compounds tested in the PI3K cell based Akt assay is provided in Table 1 under the column heading U87
(Bead proximity is the source of the signal in Alpha formats.)

As a reminder, the IC50 is the concentration at which inhibition is half-maximal. Read a low IC50 as inhibition by little substance.

Sequence of PI3Kα (P42336 whole entry): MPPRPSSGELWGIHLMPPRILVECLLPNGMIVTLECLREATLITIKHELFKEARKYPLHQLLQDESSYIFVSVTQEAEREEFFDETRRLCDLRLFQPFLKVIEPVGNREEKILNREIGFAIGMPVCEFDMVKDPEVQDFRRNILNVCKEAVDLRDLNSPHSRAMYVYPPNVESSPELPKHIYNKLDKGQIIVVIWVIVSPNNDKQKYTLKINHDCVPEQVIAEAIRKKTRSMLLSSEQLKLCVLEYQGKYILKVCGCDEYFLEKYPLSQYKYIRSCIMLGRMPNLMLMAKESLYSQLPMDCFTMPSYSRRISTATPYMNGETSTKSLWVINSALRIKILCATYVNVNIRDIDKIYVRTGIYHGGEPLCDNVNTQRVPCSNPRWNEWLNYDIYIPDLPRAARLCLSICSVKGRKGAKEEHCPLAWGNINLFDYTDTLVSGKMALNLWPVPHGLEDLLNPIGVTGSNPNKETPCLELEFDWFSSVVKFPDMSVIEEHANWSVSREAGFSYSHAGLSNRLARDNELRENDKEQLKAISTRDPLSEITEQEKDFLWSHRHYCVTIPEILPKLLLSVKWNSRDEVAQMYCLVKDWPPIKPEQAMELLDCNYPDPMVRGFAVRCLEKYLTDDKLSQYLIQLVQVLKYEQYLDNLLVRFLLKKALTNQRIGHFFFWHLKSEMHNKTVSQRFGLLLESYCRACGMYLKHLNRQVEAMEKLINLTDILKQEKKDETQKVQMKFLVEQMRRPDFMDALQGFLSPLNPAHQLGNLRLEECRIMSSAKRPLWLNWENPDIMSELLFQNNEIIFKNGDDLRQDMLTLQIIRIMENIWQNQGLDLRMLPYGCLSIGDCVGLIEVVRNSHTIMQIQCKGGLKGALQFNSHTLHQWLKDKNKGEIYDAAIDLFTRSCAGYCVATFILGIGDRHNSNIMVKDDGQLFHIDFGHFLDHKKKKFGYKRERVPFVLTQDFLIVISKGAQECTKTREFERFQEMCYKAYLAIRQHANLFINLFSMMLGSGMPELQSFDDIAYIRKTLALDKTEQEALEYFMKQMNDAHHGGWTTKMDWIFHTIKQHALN
Sequence of PI3Kα (P27986 whole entry partner): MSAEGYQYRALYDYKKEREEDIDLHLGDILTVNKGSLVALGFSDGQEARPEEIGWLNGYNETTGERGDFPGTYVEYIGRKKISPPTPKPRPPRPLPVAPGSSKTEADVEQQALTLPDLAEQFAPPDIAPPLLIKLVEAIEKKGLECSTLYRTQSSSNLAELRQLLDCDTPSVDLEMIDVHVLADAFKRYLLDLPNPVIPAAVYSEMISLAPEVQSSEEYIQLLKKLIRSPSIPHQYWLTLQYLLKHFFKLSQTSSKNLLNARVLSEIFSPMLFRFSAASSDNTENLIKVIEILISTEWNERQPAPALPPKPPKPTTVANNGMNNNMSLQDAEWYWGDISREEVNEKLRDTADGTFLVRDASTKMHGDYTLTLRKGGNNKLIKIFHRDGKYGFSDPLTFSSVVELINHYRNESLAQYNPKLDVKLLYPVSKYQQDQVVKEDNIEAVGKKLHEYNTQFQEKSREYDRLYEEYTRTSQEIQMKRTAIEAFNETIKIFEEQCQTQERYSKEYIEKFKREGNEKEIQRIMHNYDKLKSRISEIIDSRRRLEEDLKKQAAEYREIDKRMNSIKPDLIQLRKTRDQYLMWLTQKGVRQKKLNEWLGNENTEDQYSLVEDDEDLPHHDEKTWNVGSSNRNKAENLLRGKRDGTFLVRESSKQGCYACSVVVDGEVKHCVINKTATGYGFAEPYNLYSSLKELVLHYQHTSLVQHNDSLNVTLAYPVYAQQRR

`O=S(=O)(Nc1cc(-c2cnc3ccccn23)cnc1Cl)c1ccc(F)cc1` [Example 3, N-(2-Chloro-5-imidazo[1,2-a]pyridin-3-yl-3-pyridinyl)-4-fluorobenzenesulfonamide] gave an IC50 against PI3Kα of 30 nM. This lies in the double-digit nanomolar range.

Consider `Cc1ccn2c(-c3cnc(Cl)c(NS(=O)(=O)c4ccc(F)cc4)c3)cnc2c1` [Example 4, N-(2-Chloro-5-(7-methylimidazo[1,2-a]pyridin-3-yl)-3-pyridinyl)-4-fluorobenzenesulfonamide], for which 13 nM corresponded to half-maximal inhibition on PI3Kα (IC50). For the compound `Cc1nc2ccc(Br)cn2c1-c1cnc(Cl)c(NS(=O)(=O)c2ccc(F)cc2)c1` [Example 5, N-(5-(6-Bromo-2-methylimidazo[1,2-a]pyridin-3-yl)-2-chloro-3-pyridinyl)-4-fluorobenzenesulfonamide], the 50% inhibitory concentration (IC50) at PI3Kα came out at 16 nM; in test [1] it was 1220 nM. For `O=S(=O)(Nc1cc(-c2cnc3ccc(Br)cn23)cnc1Cl)c1ccc(F)cc1` [Example 6, N-(5-(6-Bromoimidazo[1,2-a]pyridin-3-yl)-2-chloro-3-pyridinyl)-4-fluorobenzenesulfonamide], the IC50 against PI3Kα turned out to be 14 nM; in test [1], 208 nM.

With `O=S(=O)(Nc1cc(-c2cnc3ccc(-c4ccncc4)cn23)cnc1Cl)c1ccc(F)cc1` [Example 7, N-(2-Chloro-5-(6-(4-pyridinyl)imidazo[1,2-a]pyridin-3-yl)-3-pyridinyl)-4-fluorobenzenesulfonamide], the IC50 is 5 nM at PI3Kα and 42 nM in test [1].

In the case of `O=S(=O)(Nc1cc(-c2cnc3ccc(-c4cccnc4)cn23)cnc1Cl)c1ccc(F)cc1` [Example 8, N-(2-Chloro-5-(6-(3-pyridinyl)imidazo[1,2-a]pyridin-3-yl)-3-pyridinyl)-4-fluorobenzenesulfonamide], the IC50 on PI3Kα amounted to 4 nM; in test [1], 83 nM. For the compound `O=S(=O)(Nc1cc(-c2cnc3ccc(N4CCOCC4)cn23)cnc1Cl)c1ccc(F)cc1` [Example 9, N-(2-Chloro-5-(6-(4-morpholinyl)imidazo[1,2-a]pyridin-3-yl)-3-pyridinyl)-4-fluorobenzenesulfonamide], the IC50 is 6 nM on PI3Kα and 76 nM in test [1]. Taken in the same sequence, the figures for `COc1cc(-c2cnc3ccccn23)cnc1OC` [Example 10, 3-(5,6-Dimethoxy-3-pyridinyl)imidazo[1,2-a]pyridine] were 15700 nM and > 25000 nM.

As to `COc1cc(-c2cnc3ccc(Br)cn23)cnc1OC` [Example 11, 6-Bromo-3-(5,6-dimethoxy-3-pyridinyl)imidazo[1,2-a]pyridine], the IC50 was found to be 1500 nM against PI3Kα and 4980 nM in test [1]. `COc1cc(-c2cnc3ccc(-c4ccncc4)cn23)cnc1OC` [Example 12, 3-(5,6-Dimethoxy-3-pyridinyl)-6-(4-pyridinyl)imidazo[1,2-a]pyridine]: the IC50 on PI3Kα came out at 861 nM; in test [1], 2190 nM.

For `COc1cc(-c2cnc3ccc(N4CCOC4=O)cn23)cnc1OC` [Example 13, 3-(3-(5,6-Dimethoxy-3-pyridinyl)imidazo[1,2-a]pyridin-6-yl)-1,3-oxazolidin-2-one], the IC50 on PI3Kα was 4670 nM; in test [1], > 25000 nM.

On to `COc1cc(-c2cnc3ccc(N4CCOCC4)cn23)cnc1OC` [Example 16, 3-(5,6-Dimethoxy-3-pyridinyl)-6-(4-morpholinyl)imidazo[1,2-a]pyridine], for which the IC50 in test [1] was 3990 nM. `CN(C)S(=O)(=O)Nc1cc(-c2cnc3ccc(-c4ccncc4)cn23)cnc1Cl` [Example 18, N-(2-Chloro-5-(6-(pyridin-4-yl)imidazo[1,2-a]pyridin-3-yl)pyridin-3-yl)dimethylaminosulfonamide]: in test [1], the IC50 was found to be 7 nM. Still for that read-out and setting: the figure for `CN(C)S(=O)(=O)Nc1cc(-c2cnc3ccc(-c4ccnc(C(F)(F)F)c4)cn23)cnc1Cl` [Example 19, N-(2-Chloro-5-(6-(2-(trifluoromethyl)pyridin-4-yl)imidazo[1,2-a]pyridin-3-yl)pyridin-3-yl)dimethylaminosulfonamid] is 9 nM; for `CS(=O)(=O)Nc1cc(-c2cnc3cc(-c4cccnc4)ccn23)cnc1Cl` [Example 20, N-(2-Chloro-5-(7-(pyridin-3-yl)imidazo[1,2-a]pyridin-3-yl)pyridin-3-yl)methanesulfonamide] it is 32 nM. Still for that read-out and setting: as for `CN(C)S(=O)(=O)Nc1cc(-c2cnc3cc(-c4ccncc4)ccn23)cnc1Cl` [Example 21, N′-(2-Chloro-5-(7-(4-pyridinyl)imidazo[1,2-a]pyridin-3-yl)-3-pyridinyl)-N,N-dimethylsulfamide], the figure is 281 nM. In test [1], `CN(C)S(=O)(=O)Nc1cc(-c2cnc3cc(-c4cccnc4)ccn23)cnc1Cl` [Example 22, N′-(2-Chloro-5-(7-(3-pyridinyl)imidazo[1,2-a]pyridin-3-yl)-3-pyridinyl)-N,N-dimethylsulfamide] registered an IC50 of 168 nM. Same read-out and setting: the figure for `Cc1cc2ncc(-c3cnc(Cl)c(NS(=O)(=O)N(C)C)c3)n2cc1-c1ccncc1` [Example 23, N′-(2-Chloro-5-(7-methyl-6-(4-pyridinyl)imidazo[1,2-a]pyridin-3-yl)-3-pyridinyl)-N,N-dimethylsulfamide] is 8 nM. Regarding `O=S(=O)(Nc1cc(-c2cnc3ccc(Cl)nn23)cnc1Cl)c1ccc(F)cc1` [Example 25, N-(2-Chloro-5-(6-chloroimidazo[1,2-b]pyridazin-3-yl)pyridin-3-yl)-4-fluorobenzenesulfonamide], half-maximal inhibition against PI3Kα (IC50) required 47 nM.

The record behind these values is patent US8729074B2, “Inhibitors of PI3 kinase” (Amgen Inc., priority 2009, dated 2014).
